According to patent publication US7157083B2, “Compositions and methods for treating retroviral infections” (priority 1998, dated 2007):

Tested on: clinical isolate ROJO (low passage HIV-1) in human PBMCs
Assay: Study 1 PBMC assay: reverse transcriptase activity after ROJO infection (Treatments A, B, C)
Assay type: cell-based
Procedure: Percent virus control (% VC) in the following tables is the mean RT activity (cpm) as a percentage of a virus control. Percent cell control (% CC) is the mean XTT absorbance as a percentage of a cell control.
Peripheral blood monocular cells (PBMCs) are obtained from normal hepatitis and HIV-1 negative donors by ficoll hypaque gradient separation. Briefly, anti-coagulated blood is diluted 1:1 with Dulbecco's phosphate buffered saline without Ca^++ and Mg^++ (PBS) and layered over 14 mL of Lymphocyte separation media in a 50 ml centrifuge tube. Tubes are then centrifuged for 30 minutes at 600× g. Banded PBLs are gently aspirated from the resulting interface and subsequently washed 2× with PBS by low speed centrifugation. The mononuclear cells are counted, viability determined by Trypan Blue dye exclusion and resuspended in RPM1640 medium supplemented with 15% FBS (heat inactivated), 2 mM L-glutamine, 100 U/mL penicillin, 100 μg/mL streptomycin, and 10 μg/mL gentamycin with 2 μg/mL phytohemagluttin (PHA) at 1×10^6 cells/mL. The cells are cultured for 48 to 72 h at 37° C., 5% CO2 Following incubation, cells are collected by centrifugation, washed and resuspended in RPMI 1640 supplemented with 15% FBS (heat inactivated), 2 Mm L-glutamine, 100 U/mL penicillin, 100 μg/mL streptomycin, and 10 μg/mL gentamycin with 20 U/mL recombinant IL-2 (R & D Systems, Minneapolis, Minn.). IL-2 is included in the culture medium to maintain the cell division initiated by the PHA mitogenic stimulation. The cultures are then maintained until use by ½ culture volume change with fresh IL-2 containing medium every 3 days.
Human peripheral blood mononuclear cells from a minimum of 2 donors, that have been blasted with PHA and IL-2, are counted, viability determined by Trypan Blue dye exclusion and mixed in equal ratios. Pooled donors are used to minimize the variability observed between individual donors which results from quantitative and qualitative differences in HIV infection and overall response to the PHA and IL-2 of primary lymphocyte populations. The cells are resuspended at 1×10^6 cells/mL in RPMI 1640 without phenol red supplemented with 15% Fetal Bovine Serum (heat inactivated), 2 mM L-glutamine, 100 U/mL penicillin, 100 μg/mL streptomycin, 10 μg/mL gentamycin and IL-2 (20 U/mL, R&D Systems, Minneapolis, Minn.). Fifty microliters of cells are then distributed to the inner 60 wells of a 96 well round bottom Microtiter culture plate in a standard format developed by the Infectious Disease Research department of Southern Research Institute. Each plate contains cell control wells (cells only), virus control wells (cell plus virus), and experimental wells (drug plus cells plus virus).
Using an in-house computer program, IC50 (50% inhibition of virus replication), TC50 (50% reduction in cell viability) and a therapeutic index (TI, […]) were determined. AZT was used as a relevant positive control compound for the individual assays.
This study compares the ability of hyaluronidase to AZT to lower viral replication as measured by reverse transcriptase levels. RT was measured on days 7, 14, and 21. Three different treatment regimens were used in the comparative study (Treatments A, B and C).
Treatment A. Normal mixed PHA blasted human PBMCs (5×10e4/well) were pretreated with drug every 48 hours for 3 doses. On day 6 of pretreatment, cells were infected with clinical isolate ROJO. 48 hours post infection, treatment with drugs continued for an additional 3 treatments. Samples for assay were collected on D7 (day 7), 14, 21, post infection, frozen and later analyzed for reverse transcriptase.
Treatment B. Normal mixed PHA blasted human PBMCs (as above) were plated in 96 wells and allowed to incubate for 48 hours (cells were set at same time as treatment A from same pool). Drug pretreatment started on day 2 and was repeated on day 4. On day 6, cell were infected as in treatment A, with concurrent addition of drug for a total of 3 treatments. […]

Hyaluronidase
RT activity % VC (Treatment A, 0.00165 units/mL, Day 7): 131.1% | RT activity % VC (Treatment A, 0.00165 units/mL, Day 14): 21.6% | RT activity % VC (Treatment A, 0.00165 units/mL, Day 21): 24.4% | RT activity % VC (Treatment A, 0.00515 units/mL, Day 7): 49.5% | RT activity % VC (Treatment A, 0.00515 units/mL, Day 14): 14.9% | RT activity % VC (Treatment A, 0.00515 units/mL, Day 21): 5.1% | RT activity % VC (Treatment A, 0.01611 units/mL, Day 7): 1.1% | RT activity % VC (Treatment A, 0.01611 units/mL, Day 14): 0.1% | RT activity % VC (Treatment A, 0.01611 units/mL, Day 21): 0.6% | RT activity % VC (Treatment A, 0.05033 units/mL, Day 7): 1.0% | RT activity % VC (Treatment A, 0.05033 units/mL, Day 14): 0.4% | RT activity % VC (Treatment A, 0.05033 units/mL, Day 21): 0.9% | RT activity % VC (Treatment A, 0.15729 units/mL, Day 7): 0.7% | RT activity % VC (Treatment A, 0.15729 units/mL, Day 14): 0.2% | RT activity % VC (Treatment A, 0.15729 units/mL, Day 21): 0.7% | RT activity % VC (Treatment A, 0.49152 units/mL, Day 7): 1.0% | RT activity % VC (Treatment A, 0.49152 units/mL, Day 14): 0.3% | RT activity % VC (Treatment A, 0.49152 units/mL, Day 21): 0.4% | RT activity % VC (Treatment A, 1.536 units/mL, Day 7): 1.6% | RT activity % VC (Treatment A, 1.536 units/mL, Day 14): 0.2% | RT activity % VC (Treatment A, 1.536 units/mL, Day 21): 1.2% | RT activity % VC (Treatment A, 4.8 units/mL, Day 7): 1.1% | RT activity % VC (Treatment A, 4.8 units/mL, Day 14): 0.3% | RT activity % VC (Treatment A, 4.8 units/mL, Day 21): 1.0% | RT activity % VC (Treatment A, 15 units/mL, Day 7): 1.1% | RT activity % VC (Treatment A, 15 units/mL, Day 14): 0.7% | RT activity % VC (Treatment A, 15 units/mL, Day 21): 1.1% | RT activity % VC (Treatment B, 0.00165 units/mL, Day 7): 47.1% | RT activity % VC (Treatment B, 0.00165 units/mL, Day 14): 10.5% | RT activity % VC (Treatment B, 0.00165 units/mL, Day 21): 5.1% | RT activity % VC (Treatment B, 0.00515 units/mL, Day 7): 6.0% | RT activity % VC (Treatment B, 0.00515 units/mL, Day 14): 1.0% | RT activity % VC (Treatment B, 0.00515 units/mL, Day 21): 0.8% | RT activity % VC (Treatment B, 0.01611 units/mL, Day 7): 3.6% | RT activity % VC (Treatment B, 0.01611 units/mL, Day 14): 0.6% | RT activity % VC (Treatment B, 0.01611 units/mL, Day 21): 0.2% | RT activity % VC (Treatment B, 0.05033 units/mL, Day 7): 3.0% | RT activity % VC (Treatment B, 0.05033 units/mL, Day 14): 0.4% | RT activity % VC (Treatment B, 0.05033 units/mL, Day 21): 0.9% | RT activity % VC (Treatment B, 0.15729 units/mL, Day 7): 2.8% | RT activity % VC (Treatment B, 0.15729 units/mL, Day 14): 0.4% | RT activity % VC (Treatment B, 0.15729 units/mL, Day 21): 0.5% | RT activity % VC (Treatment B, 0.49152 units/mL, Day 7): 4.9% | RT activity % VC (Treatment B, 0.49152 units/mL, Day 14): 0.4% | RT activity % VC (Treatment B, 0.49152 units/mL, Day 21): 0.3% | RT activity % VC (Treatment B, 1.536 units/mL, Day 7): 4.1% | RT activity % VC (Treatment B, 1.536 units/mL, Day 14): 0.2% | RT activity % VC (Treatment B, 1.536 units/mL, Day 21): 0.4% | RT activity % VC (Treatment B, 4.8 units/mL, Day 7): 1.9% | RT activity % VC (Treatment B, 4.8 units/mL, Day 14): 0.5% | RT activity % VC (Treatment B, 4.8 units/mL, Day 21): 1.2% | RT activity % VC (Treatment B, 15 units/mL, Day 7): 3.4% | RT activity % VC (Treatment B, 15 units/mL, Day 14): 0.5% | RT activity % VC (Treatment B, 15 units/mL, Day 21): 0.7% | RT activity % VC (Treatment C, 0.00165 units/mL, Day 7): 104.0% | RT activity % VC (Treatment C, 0.00165 units/mL, Day 14): 42.4% | RT activity % VC (Treatment C, 0.00165 units/mL, Day 21): 23.5% | RT activity % VC (Treatment C, 0.00515 units/mL, Day 7): 100.4% | RT activity % VC (Treatment C, 0.00515 units/mL, Day 14): 26.0% | RT activity % VC (Treatment C, 0.00515 units/mL, Day 21): 13.2% | RT activity % VC (Treatment C, 0.01611 units/mL, Day 7): 3.9% | RT activity % VC (Treatment C, 0.01611 units/mL, Day 14): 1.8% | RT activity % VC (Treatment C, 0.01611 units/mL, Day 21): 1.0% | RT activity % VC (Treatment C, 0.05033 units/mL, Day 7): 3.4% | RT activity % VC (Treatment C, 0.05033 units/mL, Day 14): 0.4% | RT activity % VC (Treatment C, 0.05033 units/mL, Day 21): 0.6% | RT activity % VC (Treatment C, 0.15729 units/mL, Day 7): 3.0% | RT activity % VC (Treatment C, 0.15729 units/mL, Day 14): 0.2% | RT activity % VC (Treatment C, 0.15729 units/mL, Day 21): 0.8% | RT activity % VC (Treatment C, 0.49152 units/mL, Day 7): 4.1% | RT activity % VC (Treatment C, 0.49152 units/mL, Day 14): 0.2% | RT activity % VC (Treatment C, 0.49152 units/mL, Day 21): 0.4% | RT activity % VC (Treatment C, 1.536 units/mL, Day 7): 2.7% | RT activity % VC (Treatment C, 1.536 units/mL, Day 14): 0.4% | RT activity % VC (Treatment C, 1.536 units/mL, Day 21): 0.6% | RT activity % VC (Treatment C, 4.8 units/mL, Day 7): 4.6% | RT activity % VC (Treatment C, 4.8 units/mL, Day 14): 0.4% | RT activity % VC (Treatment C, 4.8 units/mL, Day 21): 0.7% | RT activity % VC (Treatment C, 15 units/mL, Day 7): 3.2% | RT activity % VC (Treatment C, 15 units/mL, Day 14): 0.6% | RT activity % VC (Treatment C, 15 units/mL, Day 21): 0.7% | reduction in viral replication as measured by reverse transcriptase, compared to AZT (Treatments A, B and C, days 7, 14, and 21): greater reduction in viral replication
